# Test results: publication PMC7337905, “Nitrosative stress inhibits aminoacylation and editing activities of mitochondrial threonyl-tRNA synthetase by S-nitrosation” (Nucleic Acids Research, 2020)
# Substitutions are numbered along the chain they refer to.
# Experiments:
# Type in all cases: biochemical
# [1] = target: T1, hmtThrRS (Homo sapiens, UniProt Q9BW92, C185S/C409S/C506S); experiment: tRNA aminoacylation and posttransfer editing, […]tRNA TLC, after preincubation; details: covalent (S-nitrosation); 1 mM GSNO preincubation; C603 mutant (only Cys603 kept of the four sites)
# T1 construct: gene TARS2; mature form Leu20-Phe718, 699 residues, pET28, Ni-NTA, E. coli BL21(DE3), no reducing agent, dimer
# T1 sequence (Q9BW92 20-718 C185S/C409S/C506S): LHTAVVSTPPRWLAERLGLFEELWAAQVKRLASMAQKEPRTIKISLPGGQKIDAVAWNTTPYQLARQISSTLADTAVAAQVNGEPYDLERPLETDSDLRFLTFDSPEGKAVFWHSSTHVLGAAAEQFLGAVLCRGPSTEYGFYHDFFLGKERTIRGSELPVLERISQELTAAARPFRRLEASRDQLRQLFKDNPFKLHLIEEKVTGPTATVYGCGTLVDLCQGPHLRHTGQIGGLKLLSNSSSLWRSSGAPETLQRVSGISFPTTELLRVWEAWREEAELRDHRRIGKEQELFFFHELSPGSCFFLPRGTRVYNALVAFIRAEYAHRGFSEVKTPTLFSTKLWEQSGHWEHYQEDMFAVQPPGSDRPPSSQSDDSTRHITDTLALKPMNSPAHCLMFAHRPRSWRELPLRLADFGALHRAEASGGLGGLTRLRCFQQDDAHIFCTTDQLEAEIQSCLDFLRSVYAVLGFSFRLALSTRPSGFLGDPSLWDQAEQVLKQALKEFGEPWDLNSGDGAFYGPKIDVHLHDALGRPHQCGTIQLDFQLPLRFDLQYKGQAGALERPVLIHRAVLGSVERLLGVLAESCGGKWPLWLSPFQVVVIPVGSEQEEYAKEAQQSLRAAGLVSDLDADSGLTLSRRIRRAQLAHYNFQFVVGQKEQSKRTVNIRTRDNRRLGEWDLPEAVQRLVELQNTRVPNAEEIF
# [2] = target: T2, hmtThrRS (Homo sapiens, UniProt Q9BW92, C409S/C506S/C603S); experiment: as above; details: covalent (S-nitrosation); 1 mM GSNO preincubation; C185 mutant (only Cys185 kept of the four sites)
# T2 construct: gene TARS2; mature form Leu20-Phe718, 699 residues, pET28, Ni-NTA, E. coli BL21(DE3), no reducing agent, dimer
# T2 sequence (Q9BW92 20-718 C409S/C506S/C603S): T1 sequence (Q9BW92 20-718 C185S/C409S/C506S) with S166C, C584S
# [3] = target: T3, hmtThrRS (Homo sapiens, UniProt Q9BW92); experiment: tRNA aminoacylation and mischarging, […]tRNA TLC, after preincubation; IBP-MS of modified Cys; details: covalent (S-nitrosation, reversed by DTT); 1 uM enzyme preincubated with 1 or 5 mM GSNO, 37 C; pH 7.5, 10 mM MgCl2
# T3 construct: gene TARS2; mature form Leu20-Phe718, 699 residues, pET28, Ni-NTA, E. coli BL21(DE3), no reducing agent, dimer
# T3 sequence (Q9BW92 20-718): T1 sequence (Q9BW92 20-718 C185S/C409S/C506S) with S166C, S390C, S487C
# [4] = target: T4, hmtThrRS (Homo sapiens, UniProt Q9BW92, C185S/C506S/C603S); experiment: tRNA aminoacylation and posttransfer editing, […]tRNA TLC, after preincubation; details: covalent (S-nitrosation); 1 mM GSNO preincubation; C409 mutant (only Cys409 kept of the four sites)
# T4 construct: gene TARS2; mature form Leu20-Phe718, 699 residues, pET28, Ni-NTA, E. coli BL21(DE3), no reducing agent, dimer
# T4 sequence (Q9BW92 20-718 C185S/C506S/C603S): T1 sequence (Q9BW92 20-718 C185S/C409S/C506S) with S390C, C584S
# [5] = target: T5, hmtThrRS (Homo sapiens, UniProt Q9BW92, C185S/C409S/C603S); experiment: as above; details: covalent (S-nitrosation); 1 mM GSNO preincubation; C506 mutant (only Cys506 kept of the four sites)
# T5 construct: gene TARS2; mature form Leu20-Phe718, 699 residues, pET28, Ni-NTA, E. coli BL21(DE3), no reducing agent, dimer
# T5 sequence (Q9BW92 20-718 C185S/C409S/C603S): T1 sequence (Q9BW92 20-718 C185S/C409S/C506S) with S487C, C584S
# [6] = target: T3, hmtThrRS; experiment: tRNA mischarging, […]tRNA TLC; details: noncognate; 100 mM Ser, E. coli tRNA-Thr, 10 mM MgCl2, pH 7.5
# [7] = target: T3, hmtThrRS; experiment: tRNA aminoacylation, […]tRNA TLC; ATP-PPi exchange; details: 1 mM Thr, 10 uM E. coli tRNA-Thr, 10 mM MgCl2, pH 7.5
# [8] = target: T6, EcThrRS (Escherichia coli, UniProt P0A8M3); experiment: tRNA aminoacylation, […]tRNA TLC; details: 1 mM Thr, E. coli tRNA-Thr, 10 mM MgCl2, pH 7.5
# T6 construct: gene thrS; purified enzyme, construct not described in main text
# T6 sequence (P0A8M3 whole entry): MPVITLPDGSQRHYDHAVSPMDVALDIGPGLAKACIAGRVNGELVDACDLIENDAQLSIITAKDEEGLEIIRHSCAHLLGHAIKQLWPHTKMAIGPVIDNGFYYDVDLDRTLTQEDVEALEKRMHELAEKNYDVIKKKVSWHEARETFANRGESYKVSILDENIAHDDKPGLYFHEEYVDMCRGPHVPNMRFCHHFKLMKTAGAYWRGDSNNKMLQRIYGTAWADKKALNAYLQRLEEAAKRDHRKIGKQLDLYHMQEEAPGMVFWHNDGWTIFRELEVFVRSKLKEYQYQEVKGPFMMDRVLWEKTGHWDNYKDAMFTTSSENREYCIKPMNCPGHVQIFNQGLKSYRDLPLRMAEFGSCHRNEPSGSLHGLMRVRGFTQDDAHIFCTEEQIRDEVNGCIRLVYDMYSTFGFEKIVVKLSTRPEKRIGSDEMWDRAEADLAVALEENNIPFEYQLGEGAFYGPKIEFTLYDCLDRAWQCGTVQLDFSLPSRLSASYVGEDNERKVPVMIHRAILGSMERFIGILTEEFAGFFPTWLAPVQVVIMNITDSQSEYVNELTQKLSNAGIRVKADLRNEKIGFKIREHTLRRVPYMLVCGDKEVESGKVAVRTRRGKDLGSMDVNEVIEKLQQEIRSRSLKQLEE
compound,measurement,setting,value
"N[C@@H](CCC(=O)N[C@@H](CSN=O)C(=O)NCC(=O)O)C(=O)O [GSNO, S-nitrosoglutathione]","tRNA aminoacylation and posttransfer editing, [32P]tRNA TLC, after preincubation",[1],Both activities for the four mutants were obviously inhibited after GSNO incubation
same,"tRNA aminoacylation and posttransfer editing, [32P]tRNA TLC, after preincubation",[2],Both activities for the four mutants were obviously inhibited after GSNO incubation
same,"tRNA aminoacylation and mischarging, [32P]tRNA TLC, after preincubation; IBP-MS",[3],The resulting inhibition of both the aminoacylation and mischarging activities of hmtThrRS was dose-dependent
same,"tRNA aminoacylation and posttransfer editing, [32P]tRNA TLC, after preincubation",[4],the inhibitory effect of GSNO on the C409 mutant was the most prominent
same,"tRNA aminoacylation and posttransfer editing, [32P]tRNA TLC, after preincubation",[5],Both activities for the four mutants were obviously inhibited after GSNO incubation
"N[C@@H](CO)C(=O)O [Ser, L-Ser]","tRNA mischarging, [32P]tRNA TLC",[6],mischarging of tRNA^Thr with noncognate Ser was determined without or with H2O2 treatment
"C[C@@H](O)[C@H](N)C(=O)O [Thr, L-Thr]","tRNA aminoacylation, [32P]tRNA TLC; ATP-PPi exchange",[7],The synthesis of Thr-tRNA^Thr was obviously not affected by H2O2
same,"tRNA aminoacylation, [32P]tRNA TLC",[8],aminoacylation activity of EcThrRS was assayed and compared
